{"source": "patent US12618846B2", "about": "“Method and device for imaging fluorescent proteins in near- and short-wave infrared” (HELMHOLTZ ZENTRUM MÜNCHEN—DEUTSCHES FORSCHUNGSZENTRUM FÜR …, priority 2019, dated 2026)", "key": {"[1]": {"test": "Three-color excitation-multiplexed SWIR imaging of awake mouse", "format": "in vivo", "conditions": "80 minutes after i.p. 10 micelles and i.v. 3 micelles and ICG; top-view", "from_the_text": "To obtain real-time images in three colors, heptamethine 10 was encapsulated in PEG-coated micelles to impart water solubility. In vivo, we introduced 10 micelles by intraperitoneal injection, and 3 micelles followed by ICG by intravenous injection. […] After establishing both the technology and the molecular tools for multiplexed real-time observation of function in mice, the next goal was to enhance existing SWIR imaging applications.\nPhysiological properties such as heart-rate, respiratory rate, thermoregulation, metabolism, and the function of the central nervous system, are highly impacted by anesthesia. […] Due to frame rates which are faster than macroscopic movements in animals, the heart rate and respiratory rate in awake animals can be quantified. […] The method allows physiology to be monitored with minimal perturbation of the animal's usual environment. […] The real-time collection can be visualized by observing close time-points in which a continuous movement is monitored without visual aberrations (FIG. 16A). In addition to assessing natural physiology, these tools foreshadow more complex experiments in which the location of multiple probes could be monitored over long periods of time, non-invasively and without the need for anesthesia."}, "[2]": {"test": "Two-color SWIR lymphatic imaging of narcotized mouse", "format": "in vivo", "conditions": "intradermally into footpads and base of tail, after 30 min", "from_the_text": "The FIGS. 9A, 9B and 9C show merged frames representing the lymphatic system of a narcotized mouse in two-color real-time acquisition. With detector exposure time of 20 ms, a frame rate of 21 fps is achieved with the developed system. […] Then, Julo 7 micelles have been injected intravenously. The lymphatic functional imaging is later enhanced by the assignment of two distinct colors.\nLight Source (785 nm laser & 1064 nm laser sequentially triggered, pulse length=21 ms)→Collimator→Mirror→1100 nm Short-pass Filter→Engineered Diffuser→Sample. The arrows represent the light path. Accordingly, the light path has been set up as follows: from Light Source (785 nm laser & 1064 nm laser sequentially triggered, pulse length=21 ms) to Collimator to Mirror to 1100 nm Short-pass Filter to Engineered Diffuser to Sample.\nSample→3×f=500 mm C-Coated lenses→Silver Mirror→1000 nm Long-pass Filter→2×f=200 mm C-coated lenses→InGaAs Detector. The arrows represent the light path. Accordingly, the light path has been set up as follows: from Sample to 3×f=500 mm C-Coated lenses to Silver Mirror to 1000 nm Long-pass Filter to 2×f=200 mm C-coated lenses to InGaAs Detector.\nSample: ICG (aqueous, 13 nmol intradermally [footpads and base of tail]) and Julo7 (micelles, 70 nmol intravenously)."}, "[3]": {"conditions": "stated as known property; cited from earlier work"}, "[4]": {"conditions": "reference value used for relative measurements; cited from earlier work"}, "[5]": {"test": "Absorptive and emissive properties of flavylium heptamethine dyes in dichloromethane", "format": "physicochemical", "from_the_text": "As the highest energy absorber of the series, the 7-methoxy substituted dye 10 is ˜44 nm blue shifted from Flav7, with absorption at 984 nm, close to the 980 nm laser line, and emission at 1008 nm. […] The diphenylamino substituted 7 is ˜23 nm red-shifted compared to Flav7, while julolidine derivative 3 is red-shifted by ˜35 nm with absorption at 1061 nm and emission at 1088 nm. Due to its absorption maximum and high brightness (εmax), 3 was a promising candidate for SWIR imaging with 1064 nm excitation and was named Julo7. […] This increased understanding of the relationship between structural and absorption/emission wavelengths sets-up opportunities for predicting photophysical properties of the scaffold.\nThe absorption coefficients (ε) of the series vary from ˜110,000 to ˜240,000 M^−1cm^−1. […] The fluorescence quantum yields (φF) (relative measurements to IR-26=0.05%) remain rather constant, in the 0.4 to 0.6% range, despite red- or blue-shifted behavior, providing a platform for intensity-matched probes. […]\nFor excitation multiplexing, we are most interested in properties of the series of polymethine fluorophores when exited at 980 and 1064 nm. Thus, we calculated brightness (εA) values for each dye using the absorbance coefficient at the respective wavelengths. […]"}}, "data": [{"smiles": "CC1(C)C(/C=C/C=C/C=C/C=C2\\N(CCCCS(=O)(=O)[O-])c3ccc4ccccc4c3C2(C)C)=[N+](CCCCS(=O)(=O)[O-])c2ccc3ccccc3c21.[Na+]", "note": "[ICG, indocyanine green]", "values": [{"measurement": "location of probe in awake mouse", "setting": "[1]", "value": "exclusively in the liver"}, {"measurement": "conduction through the lymphatic vessels", "setting": "[2]", "value": "efficiently conducted through the lymphatic vessels"}, {"measurement": "clearance route", "setting": "[3]", "value": "clears efficiently and exclusively from the liver"}]}, {"smiles": "ClC1=C(/C=C/c2cc(-c3ccccc3)[s+]c3ccccc23)CCC/C1=C\\C=C1/C=C(c2ccccc2)Sc2ccccc21.[O-][Cl+3]([O-])([O-])[O-]", "note": "[IR-26]", "values": [{"measurement": "fluorescence quantum yield of reference standard", "setting": "[4]", "value": 0.05, "unit": "%"}]}, {"smiles": "CN(C)c1ccc2c(c1)OC(c1ccccc1)=C/C2=C\\C=C1/CCCC(/C=C/c2cc(-c3ccccc3)[o+]c3cc(N(C)C)ccc23)=C1Cl", "note": "[dye 1]", "values": [{"measurement": "λmax,abs (absorption)", "setting": "[5]", "value": 1027, "unit": "nm"}, {"measurement": "λmax,em (emission)", "setting": "[5]", "value": 1053, "unit": "nm"}]}]}
